From PMC10060354, “Discovery of a small molecule ligand of FRS2 that inhibits invasion and tumor growth” (Cellular Oncology, 2022)
≈ marks a conversion by molar mass, not a printed value. Where two headings read alike, the source gives them in different places.

What was measured:
[1] = test system: DAOY cells; experiment: Spheroid invasion assay (SIA), bFGF-induced collagen I invasion; assay type: cell-based, human; conditions: for functional activity in SIA (result in words): DAOY, bFGF-induced, 1, 5 and 10 µM
Method in brief: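 Spheroids formed over 24–72 h were embedded in collagen I (final 1.75 mg/ml) and stimulated with bFGF (100 ng/ml unless stated), HGF 30 ng/ml or EGF 20 ng/ml with compound in DMSO. Invasion distance was quantified 24–48 h after embedding.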

[2] = Semi-thermodynamic solubility; assay type: physicochemical; conditions: for solubility / solubility thermodynamic: PBS, aqueous buffer, thermodynamic from solid; for solubility: Room Temp, Overnight, LC-MSMS; for solubility (result in words): Supplementary Table 2; for solubility thermodynamic: overnight; for solubility thermodynamic / Solubility (class in words): summary sheet
Procedure: In vitro ADME-T assays were performed by Cyprotex (Cyprotex Discovery, Cheshire, UK). […] The solution was agitated at ambient temperature overnight. The solutions were then centrifuged for 30 min at 3000 rpm at RT. The supernatant was removed and centrifuged for a further 30 min under the same conditions. An aliquot of the resulting supernatant was diluted in 50% methanol in water (containing an internal standard for MS analysis) prior to analysis by LC–MS/MS. […] These stocks were diluted in 50% methanol in water (containing an internal standard for MS analysis) prior to analysis by LC–MS/MS. The solubility of the shortlisted hits was calculated from a linear or quadratic fit of the standard curve.

[3] = Microsomal metabolic stability; assay type: in vitro ADME; conditions: human, pooled liver microsomes; for half-life at 1 µM: pH 7.4, liver microsomes; for microsomal CLint at 1 µM: pH 7.4, read-out: Metabolic stability - Intrinsic clearance (CI)
Procedure: Pooled liver microsomes were purchased from Xenotech (H0500) and were stored according to manufacturer’s instructions prior to use. […] A minus co-factor control incubation was included for each compound tested where 0.1 M phosphate buffer pH 7.4 was added instead of NADPH. Two control compounds were included with each species. All incubations were performed singularly for each shortlisted hit. Each compound was incubated for 0, 5, 15, 30 and 45 min. The minus co-factor was incubated for 45 min only. The reactions were stopped by transferring incubate into acetonitrile at the appropriate time points in a 1:3 ratio. The termination plates were centrifuged at 3000 rpm for 20 min at 4 °C to precipitate the protein. Following protein precipitation, the supernatant were combined in cassette of up to 4 compounds, internal standard for MS analysis was added and samples were analyzed using LC–MS/MS. From a plot of In peak area ratio (compound peak area/internal standard peak area) against time, the gradient of the lines were determined. Subsequently, half-life and intrinsic clearance were calculated using the following equations. Eliminationrateconstant(k)=(-gradient)Half-life(t1/2)(min)=0.693/kIntrinsicclearance(CLint)(μl/min/mgprotein)=Vx0.693/t1/2 where V = Incubation volume (µl) / Microsomal protein (mg)

[4] = CaCo-2 permeability (bi-directional); conditions: human
Procedure: Caco-2 cells obtained from the ATCC were used between passage numbers 40—60. Cells were seeded onto Millipore Multiscreen Transwell plates at 1 × 10^5 cells/cm^2. The cells were cultured in DMEM and media was changed every two or three days. On day 20, the permeability study was performed. […] Cells were then incubated with HBSS at the desired pH in both apical and basolateral compartments for 40 min to stabilize physiological parameters.
The fluorescent integrity marker lucifer yellow was also included in the dosing solution. Analytical standards were prepared from test compound DMSO dilutions and transferred to buffer, maintaining a 1% v/v DMSO concentration.
For assessment of A-B permeability, HBSS was removed from the apical compartment and replaced with test compound dosing solution. The apical compartment insert was then placed into a companion plate containing fresh buffer (containing 1% v/v DMSO). For assessment of B-A permeability, HBSS was removed from the companion plate and replaced with test compound dosing solution. Fresh buffer (containing 1% v/v DMSO) was added to the apical compartment insert, which was then placed into the companion plate.
Compound permeability was assessed in duplicate. Compounds of known permeability characteristics were run as controls on each assay plate.
Test and control compounds were quantified by LC–MS/MS cassette analysis using a 7-point calibration with appropriate dilution of the samples. The starting concentration (C0) was determined from the dosing solution and the experimental recovery calculated from C0 and both apical and basolateral compartment concentrations. The integrity of the monolayer throughout the experiment was checked by monitoring lucifer yellow permeation using fluorimetric analysis.
The permeability coefficient (Papp) for each compound was calculated from the following equation: Papp=dQ/dtC0×A where dQ/dt was the rate of permeation of the drug across the cells, C0 was the donor compartment concentration at time zero and A was the area of the cell monolayer. C0 was obtained from analysis of the dosing solution.
Efflux ratio (ER) was calculated from mean A-B and B-A data. This was derived from: ER=Papp(B-A)Papp(A-B)

[5] = test system: HepG2 human hepatocellular carcinoma cells; experiment: Cell viability (cytotoxicity, MTT) using HepG2; assay type: cell-based; conditions: for MTT (AC50) Conc at which 50% of maximum efficacy is reached / MTT (MEC) Minimum effective concentration: 72 h, summary sheet; for MEC: 72h, 3 replicas, NR = No response (Summary sheet)
Procedure: HepG2 human hepatocellular carcinoma cells were plated on 96-well tissue culture polystyrene plates for 24 h prior to dosing of the cells. The shortlisted hits were diluted in DMSO and serial dilutions are made 1% DMSO in growth media. Compounds at 8 concentrations in triplicate was then incubated for 72 h. Appropriate blanks and controls were run alongside the assay. One h prior to the end of the incubation period, the cells were loaded with MTT [yellow; 3-(4,5-dimethyl-2-thiazolyl)-2,5-diphenyl-2H-tetrazolium bromide], the plates were dried and re-solubilized using DMSO. The plates were then scanned at 570 nm using a plate reader.
The minimum effective concentration was determined from the lowest concentration whose mean value exceeds the significance level, provided either a clear dose–response relationship was observed, or at least two consecutive concentration points were above the significance level.

[6] = Homo sapiens, Daoy, DAOY cells, n = 3 technical replicas, read-out: EC50 for the inhibition of bFGF-induced collagen I invasion
[7] = read-out: Solubility Replicate 1
[8] = read-out: Solubility Replicate 2
[9] = read-out: Solubility Replicate 3
[10] = read-out: Solubility Replicate 4
[11] = read-out: t1/2 of clearance (CL1/2), in vitro
[12] = Caco-2, Mean Papp A-B, Caco-2, summary sheet
[13] = Caco-2, Mean Papp B-A, Caco-2, summary sheet
[14] = Caco-2, pH 7.4, Mean % Recovery A2B, HBSS/HBSS, pH 7.4/7.4
[15] = Caco-2, pH 7.4, Mean % Recovery B2A, HBSS/HBSS, pH 7.4/7.4
[16] = Caco-2, pH 7.4, Mean Papp A2B, HBSS/HBSS, pH 7.4/7.4
[17] = Caco-2, pH 7.4, Mean Papp B2A, HBSS/HBSS, pH 7.4/7.4
[18] = Caco-2, pH 7.4, Papp A2B Replicate 1, HBSS/HBSS, pH 7.4/7.4
[19] = Caco-2, pH 7.4, Papp A2B Replicate 2, HBSS/HBSS, pH 7.4/7.4
[20] = Caco-2, pH 7.4, Papp B2A Replicate 1, HBSS/HBSS, pH 7.4/7.4
[21] = Caco-2, pH 7.4, Papp B2A Replicate 2, HBSS/HBSS, pH 7.4/7.4

solubility ([2]; read-out: Mean Solubility) [µM] | solubility [2, 7] [µM] | solubility [2, 8] [µM] | solubility [2, 9] [µM] | solubility [2, 10] [µM] | solubility thermodynamic [2] [µM] | Solubility (class in words) [2] | half-life at 1 µM ([3]; read-out: t1/2) [min] | microsomal CLint at 1 µM [3] [µL/min/mg] | efflux ratio at 120 min, 10 μM ([4]; Caco-2) | Papp A→B at 120 min, 10 μM [4, 12] [×10⁻⁶ cm/s] | Papp B→A at 120 min, 10 μM [4, 13] [×10⁻⁶ cm/s] | efflux ratio at 120 min, 10 μM ([4]; Caco-2, pH 7.4) | recovery at 120 min, 10 µM [4, 14] [%] | recovery at 120 min, 10 µM [4, 15] [%] | Papp A→B at 120 min, 10 μM [4, 16] [×10⁻⁶ cm/s] | Papp B→A at 120 min, 10 μM [4, 17] [×10⁻⁶ cm/s] | Papp B→A at 120 min, 10 μM [4, 20] [×10⁻⁶ cm/s] | Papp B→A at 120 min, 10 μM [4, 21] [×10⁻⁶ cm/s] | SMILES | MTT (MEC) Minimum effective concentration [5] | also measured
> 100 | > 100 | > 100 | > 100 | > 100 | > 100 | Freely | 29.1 | 47.6 | 8.64 | 4.7 | 40.6 | 8.64 | 70.2 | 73.4 | 4.7 | 40.6 | 40 | 41.2 | CC(C)C[C@@H](CO)NCc1cc(O)c2cc(F)ccc2n1 [Compound 3.14] | No response | EC50 ([1]; DAOY cells, n = 3 technical replicas, read-out: EC50 for the inhibition of bFGF-induced collagen I invasion): 5.92 µM; EC50 [1, 6]: 5.92 µM; solubility (result in words) [2]: freely soluble; half-life at 1 µM [3, 11]: 29 min; Papp A→B at 120 min, 10 μM [4, 18]: 4.69 ×10⁻⁶ cm/s; Papp A→B at 120 min, 10 μM [4, 19]: 4.71 ×10⁻⁶ cm/s; toxicity in the MTT assay (result in words) [5]: no toxicity; MTT (AC50) Conc at which 50% of maximum efficacy is reached [5]: No response
> 100 | > 100 | > 100 | > 100 | > 100 | > 100 | Freely | 5.52 | 251 | 5.13 | 4.53 | 23.2 | 5.13 | 102 | 65.6 | 4.53 | 23.2 | 22 | 24.4 | Cc1[nH]nc(-c2ccc(O)c(C)c2O)c1-c1nc2ccccc2s1 [Compound E12] | 15.6 µM | functional activity in SIA (result in words) [1]: comparable inhibition of invasion; EC50 [1, 6]: 18.2 µM; solubility (result in words) [2]: freely soluble; half-life at 1 µM [3, 11]: 5.52 min; Papp A→B at 120 min, 10 μM [4, 18]: 3.77 ×10⁻⁶ cm/s; Papp A→B at 120 min, 10 μM [4, 19]: 5.28 ×10⁻⁶ cm/s; toxicity in the MTT assay (result in words) [5]: moderate toxicity; MEC [5]: 15.6 µM
> 100 | > 100 | > 100 | > 100 | > 100 | > 100 | Freely | 83 | 16.7 | 1.5 | 1.94 | 2.91 | 1.5 | 86.6 | 85 | 1.94 | 2.91 | 2.62 | 3.2 | O=C(O)c1c(Cl)cc(O)c2c1C1C=CCC1C(c1ccc(Cl)cc1)N2 (stereo not drawn) [Compound 13] | No response | functional activity in SIA (result in words) [1]: mild but dose-depended reduction; Papp A→B at 120 min, 10 μM [4, 18]: 1.02 ×10⁻⁶ cm/s; Papp A→B at 120 min, 10 μM [4, 19]: 2.86 ×10⁻⁶ cm/s; MTT (AC50) Conc at which 50% of maximum efficacy is reached [5]: No response
24.8 (≈ 8.86 µg/mL) | 25 (≈ 8.93 µg/mL) | 16.6 (≈ 5.93 µg/mL) | 27.2 (≈ 9.72 µg/mL) | 30.3 (≈ 10.8 µg/mL) | 24.8 (≈ 8.86 µg/mL) | Sparingly | 1.64 | 845 |  |  | 2.31 |  | 81.1 | 50.7 |  | 2.31 | 3.4 | 1.22 | N#Cc1c(Cl)cc(O)c2c1C1C=CCC1C(c1ccc(Cl)cc1)N2 (stereo not drawn) [Compound 14] | 3.93 µM | functional activity in SIA (result in words) [1]: reduced invasion comparable to the parent compound 7; MEC [5]: 3.93 µM

SMILES | solubility ([2]; read-out: Mean Solubility) [µM] | solubility [2, 7] [µM] | solubility [2, 8] [µM] | solubility [2, 9] [µM] | solubility [2, 10] [µM] | solubility thermodynamic [2] [µM] | Solubility (class in words) [2] | half-life at 1 µM ([3]; read-out: t1/2) [min] | microsomal CLint at 1 µM [3] [µL/min/mg] | efflux ratio at 120 min, 10 μM ([4]; Caco-2) | Papp A→B at 120 min, 10 μM [4, 12] [×10⁻⁶ cm/s] | Papp B→A at 120 min, 10 μM [4, 13] [×10⁻⁶ cm/s] | efflux ratio at 120 min, 10 μM ([4]; Caco-2, pH 7.4) | recovery at 120 min, 10 µM [4, 14] [%] | recovery at 120 min, 10 µM [4, 15] [%] | Papp A→B at 120 min, 10 μM [4, 16] [×10⁻⁶ cm/s] | Papp B→A at 120 min, 10 μM [4, 17] [×10⁻⁶ cm/s] | Papp B→A at 120 min, 10 μM [4, 20] [×10⁻⁶ cm/s] | Papp B→A at 120 min, 10 μM [4, 21] [×10⁻⁶ cm/s] | MTT (MEC) Minimum effective concentration [5] | also measured
O=[N+]([O-])c1c(Cl)cc(O)c2c1C1C=CCC1C(c1ccc(Cl)cc1)N2 (stereo not drawn) [Compound 7] | 10.4 (≈ 3.92 µg/mL) | 11.8 (≈ 4.45 µg/mL) | 9.33 (≈ 3.52 µg/mL) | 9.97 (≈ 3.76 µg/mL) |  | 10.4 (≈ 3.92 µg/mL) | Sparingly | 3.62 | 383 | 2.84 | 3.59 | 10.2 | 2.84 | 15.3 | 37.8 | 3.59 | 10.2 | 8.39 | 12 | 4.38 µM | functional activity in SIA (result in words) [1]: performed equally well as 3.18; EC50 ([1]; Homo sapiens, Daoy, 100 ng/ml bFGF, read-out: Collagen I invasion EC50): 2.54 µM; IC50 ([1]; Homo sapiens, DAOY wt): 2.76 µM; solubility (result in words) [2]: sparingly soluble; half-life at 1 µM [3, 11]: 3.62 min; Papp A→B at 120 min, 10 μM [4, 18]: 3.41 ×10⁻⁶ cm/s; Papp A→B at 120 min, 10 μM [4, 19]: 3.76 ×10⁻⁶ cm/s; toxicity in the MTT assay (result in words) [5]: moderately toxic; MEC [5]: 4.38 µM
